Results published in US8846655B2, “4-substituted-2-phenoxy-phenylamine delta opioid receptor modulators” (Janssen Pharmaceutica, NV, priority 2009, dated 2014).

How the values were obtained:
mu opioid receptor = biological target: T1, mu opioid receptor (Rattus norvegicus, UniProt P33535); experiment: Rat brain mu opioid receptor binding assay; settings: rat forebrain membranes, ~0.8 nM [3H]DAMGO; read-out: μ-binding Ki
T1 construct: the forebrains were homogenized in Tris buffer in a Teflon®-glass homogenizer; from tissue; host or cells: rat forebrain membrane homogenate (male Wistar rats)
Method: Procedure: Male, Wistar rats (150-250 g, VAF, Charles River, Kingston, N.Y.) were killed by CO2, and their brains were removed and placed immediately in ice cold Tris HCl buffer (50 mM, pH 7.4). The forebrains were separated from the remainder of the brain by a coronal transection, beginning dorsally at the colliculi and passing ventrally through the midbrain-pontine junction. After dissection, the forebrains were homogenized in Tris buffer in a Teflon®-glass homogenizer. The homogenate was diluted to a concentration of 1 g of forebrain tissue per 80 mL Tris and centrifuged at 39,000×g for 10 min. The pellet was resuspended in the same volume of Tris buffer containing 5 mM MgCl2 with several brief pulses from a Polytron homogenizer. This particulate preparation was used for the mu opioid binding assays.

delta opioid receptor [1] = biological target: T2, delta opioid receptor (Mus musculus, UniProt P32300); experiment: [35S]GTPγS binding assay in NG108-15 cell membranes (delta opioid functional assay), 200 nM screen; type: biochemical; settings: 200 nM compound; relative to calculated max of SNC80 dose response
T2 construct: NG108-15 cell membranes were purchased from Applied Cell Sciences (Rockville, Md.); host or cells: NG108-15 cell membranes (purchased)
Method: Methods: NG108-15 cell membranes were purchased from Applied Cell Sciences (Rockville, Md.). 5 mg/mL of membrane protein suspended in 10 mM TRIS-HCl pH 7.2, 2 mM EDTA, 10% sucrose. Membranes were maintained at 4-8° C. A 1 mL volume of membranes was added into 10 mL cold binding assay buffer. The assay buffer contained 50 mM Tris, pH 7.6, 5 mM MgCl2, 100 mM NaCl, 1 mM DTT and 1 mM EGTA. The membrane suspension was homogenized twice with a Polytron, and centrifuged at 3000 rpm for 10 min. The supernatant was then centrifuged at 18,000 rpm for 20 min. Ten mL assay buffer was added into the pellet containing tube. The pellet and buffer were mixed with a Polytron.
Incubation procedure: The pellet membranes (75 μg/mL) were preincubated with SPA (10 mg/mL) at 25° C. for 45 min in the assay buffer. The SPA (5 mg/mL) coupled with membranes (37.5 μg/mL) was then incubated with 0.1 nM [^35S] GTPγS in the same Tris buffer containing 100 μM GDP in total volume of […]. 200 nM of receptor agonists was used to stimulate [^35S]-GTPγS binding. The basal binding was tested in the absence of agonists and non-specific binding was tested in the presence of 10 μM unlabeled GTPγS.
Data % of Basal=(stimulated−non specific)*100/(basal−non specific). Relative Efficacy of a compound at 200 nM=(% of Basal of test compound at 200 nM)/(Calculated Max of SNC80 dose response. Curve in prism).

δ-opioid receptor = biological target: T3, δ-opioid receptor (Mus musculus, UniProt P32300); experiment: [35S]GTPγS δ-opioid receptor functional assay (EC50, relative efficacy, % inhibition); type: biochemical
T3 construct: NG108-15 cell membranes were purchased from Applied Cell Sciences (Rockville, Md.)
Method: Incubation procedure: The pellet membranes (75 μg/mL) were preincubated with SPA (10 mg/mL) at 25° C. for 45 min in the assay buffer. […] GTPγS in the same Tris buffer containing 100 μM GDP in total volume of 200 pt. 200 nM of receptor agonists was used to stimulate [^35S]-GTPγS binding. The basal binding was tested in the absence of agonists and non-specific binding was tested in the presence of 10 μM unlabeled GTPγS.
Compounds were tested for function as antagonists by evaluating their potential to inhibit agonist-stimulated GTPγS binding. Radioactivity was quantified on a Packard TopCount.

delta opioid receptor [2] = biological target: T4, delta opioid receptor (Rattus norvegicus, UniProt P33533); experiment: Rat brain delta opioid receptor binding assay; settings: rat forebrain membranes, 0.25 nM [3H]naltrindole; read-out: δ-binding (Naltrindole ligand) Ki
T4 construct: the forebrains were homogenized in Tris buffer in a Teflon®-glass homogenizer; from tissue; host or cells: rat forebrain membrane homogenate (male Wistar rats)
Method: Procedure: Male, Wistar rats (150-250 g, VAF, Charles River, Kingston, N.Y.) were killed by CO2, and their brains were removed and placed immediately in ice cold Tris HCl buffer (50 mM, pH 7.4). The forebrains were separated from the remainder of the brain by a coronal transection, beginning dorsally at the colliculi and passing ventrally through the midbrain-pontine junction. After dissection, the forebrains were homogenized in Tris buffer in a Teflon®-glass homogenizer. The homogenate was diluted to a concentration of 1 g of forebrain tissue per 80 mL Tris and centrifuged at 39,000×g for 10 min. The pellet was resuspended in the same volume of Tris buffer containing 5 mM MgCl2 with several brief pulses from a Polytron homogenizer. […] To each sample area 2×50 μL of Betaplate Scint scintillation fluid (LKB) was added and the radioactivity was quantified on a LKB (Wallac) 1205 BetaPlate liquid scintillation counter.
Analysis: The data from the scintillation counter were used to calculate either the % inhibition compared to control binding (when only a single concentration of test compound was evaluated) or a K1 value (when a range of concentrations was tested). Percent inhibition was calculated as: [(total dpm-test compound dpm)/(total dpm-nonspecific dpm)]*100. Kd and Ki values were calculated using GraphPad PRISM data analysis program.

mice = experiment: Mouse Graded Abdominal Irritant Test (GrAIT); type: in vivo; settings: 10% Solutol, 30 min pretreatment
Method: Test compound or vehicle was administered s.c. or p.o. to mice. Following the pretreatment time, an i.p. injection of 0.6% of acetic acid in 0.5 mL was administered. Five min after acetic acid administration, mice were placed into clear chambers and were continuously observed for 5 min. Behavioral responses including twisting and elongation of the body that extended through the hindlimbs were counted and averaged for the group of animals over the observation period.

T1 sequence (P33535 whole entry): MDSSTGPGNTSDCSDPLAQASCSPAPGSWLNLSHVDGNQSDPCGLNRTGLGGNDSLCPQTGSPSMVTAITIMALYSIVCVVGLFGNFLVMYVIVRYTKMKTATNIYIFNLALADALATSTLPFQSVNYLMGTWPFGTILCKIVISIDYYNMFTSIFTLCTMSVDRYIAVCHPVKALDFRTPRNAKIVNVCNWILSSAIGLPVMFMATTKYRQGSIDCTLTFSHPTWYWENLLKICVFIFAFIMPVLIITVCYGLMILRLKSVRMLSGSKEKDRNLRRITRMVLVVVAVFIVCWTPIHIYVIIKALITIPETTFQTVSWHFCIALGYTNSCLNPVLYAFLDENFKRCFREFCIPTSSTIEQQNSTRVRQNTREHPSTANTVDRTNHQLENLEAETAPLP
T3 sequence (P32300 whole entry): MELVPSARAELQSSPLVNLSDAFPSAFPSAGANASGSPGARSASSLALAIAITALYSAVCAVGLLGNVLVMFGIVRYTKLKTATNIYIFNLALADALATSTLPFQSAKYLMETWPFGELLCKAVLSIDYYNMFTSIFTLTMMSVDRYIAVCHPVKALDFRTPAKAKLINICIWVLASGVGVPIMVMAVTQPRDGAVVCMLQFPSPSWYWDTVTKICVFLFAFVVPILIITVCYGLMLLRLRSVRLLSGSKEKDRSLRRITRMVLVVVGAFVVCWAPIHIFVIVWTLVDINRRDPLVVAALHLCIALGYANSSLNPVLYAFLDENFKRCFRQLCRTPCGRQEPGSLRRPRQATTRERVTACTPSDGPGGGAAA
T2 sequence (P32300 whole entry): as above
T4 sequence (P33533 whole entry): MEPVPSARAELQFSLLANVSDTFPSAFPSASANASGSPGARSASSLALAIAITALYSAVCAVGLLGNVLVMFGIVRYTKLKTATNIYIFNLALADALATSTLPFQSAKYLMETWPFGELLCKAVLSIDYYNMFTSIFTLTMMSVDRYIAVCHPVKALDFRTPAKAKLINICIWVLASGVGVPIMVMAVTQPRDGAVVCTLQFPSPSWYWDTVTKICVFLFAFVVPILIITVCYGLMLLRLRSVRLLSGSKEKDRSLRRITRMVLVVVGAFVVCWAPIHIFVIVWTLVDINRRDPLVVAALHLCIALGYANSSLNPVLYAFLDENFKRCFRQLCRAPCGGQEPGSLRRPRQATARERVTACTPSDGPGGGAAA

| Structure (SMILES) | Ki (mu opioid receptor) [µM] | GTγPS δ-opioid receptor Rel Efficacy (δ-opioid receptor) | other results |
| --- | --- | --- | --- |
| COc1cccc(Oc2cc(-c3ccccc3)ccc2NC[C@@H]2CCCN2)c1 [Cpd 15] | > 10 |  |  |
| COc1ccc(Oc2cc(-c3cncc(F)c3)ccc2NC[C@@H]2C[C@@H](F)CN2)cc1 [Cpd 25] |  | 1.0217 | GTPγS δ-RelEfficacy @200 nM (delta opioid receptor [1]): 0.78 |
| COc1ccc(Oc2cc(CCc3cccc(OC)c3)ccc2NC[C@@H]2CCCN2)cc1 [Cpd 4] | > 10 |  |  |
| O=C(O)c1cccc(Oc2cc(-c3ccccc3)ccc2NC[C@@H]2CCCN2)c1 [Cpd 32] | > 10 |  |  |
| COC(=O)c1cccc(Oc2cc(-c3ccccc3)ccc2NC[C@@H]2CCCN2)c1 [Cpd 21] | > 10 |  |  |
| COc1ccc(Oc2cc(-c3ccncc3)ccc2NC[C@@H]2CCCN2)cc1 [Cpd 38] | 4.36 | 0.8323 | EC50 (δ-opioid receptor): 0.478 µM; inhibition at 10 µM (δ-opioid receptor; read-out: GTPγS δ-opioid receptor % Inh @10 μM): 16.4%; Ki (delta opioid receptor [2]): 0.0155 µM |
| COc1ccc(Oc2ccc(NC[C@@H](N)CO)c(Oc3ccc(OC)cc3)c2)cc1 [Cpd 55] | > 10 |  |  |
| COc1ccc(Oc2cc(-c3cncc(C#N)c3)ccc2NC[C@@H]2CCCN2)cc1 [Cpd 44] |  | 1.1554 | GTPγS δ-RelEfficacy @200 nM (delta opioid receptor [1]): 0.45 |
| COC(=O)c1ccc(Oc2cc(-c3ccccc3)ccc2NC[C@@H]2CCCN2)cc1 [Cpd 20] | > 10 |  |  |
| Clc1cccc(Cl)c1Oc1cc(-c2ccccc2)ccc1NC[C@@H]1CCCN1 [Cpd 18] | > 10 | 0.763 |  |
| CCN(CC)C(=O)c1cccc(Oc2cc(-c3ccccc3)ccc2NC[C@@H]2CCCN2)c1 [Cpd 34] | > 10 |  |  |
| c1ccc(Oc2cc(-c3ccccc3)ccc2NC[C@@H]2CCCN2)cc1 [Cpd 14] | > 10 |  |  |
| N#Cc1cccc(Oc2cc(-c3ccccc3)ccc2NC[C@@H]2CCCN2)c1 [Cpd 13] | > 10 |  |  |
| COc1ccc(Oc2cc(CCc3ccccc3)ccc2NC[C@@H]2CCCN2)cc1 [Cpd 5] | > 10 |  |  |
| COc1ccc(Oc2cc(-c3cncc(SC)c3)ccc2NC[C@@H]2C[C@@H](F)CN2)cc1 [Cpd 26] |  | 1.0716 | GTPγS δ-RelEfficacy @200 nM (delta opioid receptor [1]): 0.7 |
| COc1ccc(Oc2cc(CCc3cccc(F)c3)ccc2NC[C@@H]2CCCN2)cc1 [Cpd 7] | > 10 |  |  |
| Oc1ccc(Oc2cc(-c3cccnc3)ccc2NC[C@@H]2CCCN2)cc1 [Cpd 45, (S)-4-{5-Pyridin-3-yl-2-[(pyrrolidin-2-ylmethyl)-amino]-phenoxy}-phenol] |  | 0.627 |  |
| COc1ccc(Oc2cc(-c3cncnc3)ccc2NC[C@@H]2CCCN2)cc1 [Cpd 42] |  |  | GTPγS δ-RelEfficacy @200 nM (delta opioid receptor [1]): 0.39 |
| CCN(CC)C(=O)c1ccc(NC[C@@H]2CCCN2)c(Oc2ccccc2OC)c1 [Cpd 11] | > 10 |  |  |

| Structure (SMILES) | Ki (mu opioid receptor) [µM] | GTγPS δ-opioid receptor Rel Efficacy (δ-opioid receptor) | other results |
| --- | --- | --- | --- |
| COc1ccc(Oc2cc(-c3cncc(OC)c3)ccc2NC[C@@H]2C[C@@H](F)CN2)cc1 [Cpd 27] | > 10 |  |  |
| NC(=O)c1cccc(Oc2cc(-c3ccccc3)ccc2NC[C@@H]2CCCN2)c1 [Cpd 30] |  | 0.2668 |  |
| Clc1ccc(Oc2cc(-c3ccccc3)ccc2NC[C@@H]2CCCN2)c(Cl)c1 [Cpd 22] | > 10 |  |  |
| Fc1ccc(Oc2cc(-c3ccccc3)ccc2NC[C@@H]2CCCN2)cc1 [Cpd 16] | > 10 |  |  |
| COc1ccc(Oc2cc(-c3cncc(C#N)c3)ccc2NC[C@@H]2C[C@@H](F)CN2)cc1 [Cpd 24, (2S,4R)-5-[4-[(4-Fluoro-pyrrolidin-2-ylmethyl)-amino]-3-(4-methoxy-phenoxy)-phenyl]-nicotinonitrile] |  | 1.0158 | GTPγS δ-RelEfficacy @200 nM (delta opioid receptor [1]): 1.01 |
| CCN(CC)C(=O)/C=C/c1ccc(NC[C@@H]2CCCN2)c(Oc2ccc(OC)cc2)c1 [Cpd 1, (2E)-N,N-Diethyl-3-[3-(4-methoxyphenoxy)-4-{[(2S)-pyrrolidin-2-ylmethyl]amino}phenyl]prop-2-enamide] |  | 0.8328 | # abdominal stretches (cpd) (mice; 30 mg/kg s.c.): 10.9 |
| COc1ccc(Oc2cc(-c3cncc(F)c3)ccc2NC[C@@H]2CCCN2)cc1 [Cpd 43] |  | 1.0908 | GTPγS δ-RelEfficacy @200 nM (delta opioid receptor [1]): 0.43 |
| COc1ccc(Oc2cc(-c3cccc4ccccc34)ccc2NC[C@@H]2CCCN2)cc1 [Cpd 37] | > 10 |  |  |
| COc1ccc(Oc2cc(-c3ccoc3)ccc2NC[C@@H]2CCCN2)cc1 [Cpd 40] | > 10 |  |  |
| CCN(CC)C(=O)c1ccc(NC[C@@H]2CCCN2)c(Oc2ccc(OC)cc2)c1 [Cpd 10] |  |  | # abdominal stretches (cpd) (mice; 30 mg/kg p.o.): 19; # abdominal stretches (cpd) (mice; 30 mg/kg s.c.): 11; # abdominal stretches (cpd) (mice; 100 mg/kg p.o.): 17.9; # abdominal stretches (cpd) (mice; 300 mg/kg p.o.): 21.2 |
| COc1ccc(Oc2cc(-c3ccsc3)ccc2NC[C@@H]2CCCN2)cc1 [Cpd 41] | > 10 |  |  |
| COc1ccc(Oc2cc(CCc3ccc(F)cc3)ccc2NC[C@@H]2CCCN2)cc1 [Cpd 6] | > 10 |  |  |
| CCN(CC)C(=O)CCc1ccc(NC[C@@H]2CCCN2)c(Oc2ccc(OC)cc2)c1 [Cpd 2, N,N-Diethyl-3-[3-(4-methoxyphenoxy)-4-{[(2S)-pyrrolidin-2-ylmethyl]amino}phenyl]propanamide] |  | 0.8333 |  |
| COc1ccc(Oc2cc(-c3ccccc3)ccc2NC[C@@H]2CCCN2)cc1 [Cpd 35, (S)-[3-(4-Methoxy-phenoxy)-biphenyl-4-yl]-pyrrolidin-2-ylmethyl-amine] | > 10 |  |  |
| COc1ccc(Oc2cc(-c3cccnc3)ccc2NC[C@@H]2CCCN2)cc1 [Cpd 39] |  | 0.9245 |  |
| FC(F)(F)Oc1ccc(Oc2cc(-c3ccccc3)ccc2NC[C@@H]2CCCN2)cc1 [Cpd 17] | > 10 |  |  |
| COc1ccc(Oc2cc(-c3ccccc3)ccc2N2CCNCC2)cc1 [Cpd 46, 1-[3-(4-Methoxy-phenoxy)biphenyl-4-yl]piperazine] | > 10 |  |  |
| COc1ccc(Oc2cc(-c3cncc(C)c3)ccc2NC[C@@H]2C[C@@H](F)CN2)cc1 [Cpd 28] |  | 0.8756 |  |
| CNCCNc1ccc(Oc2ccc(OC)cc2)cc1Oc1ccc(OC)cc1 [Cpd 63, N-[2,4-Bis-(4-methoxy-phenoxy)-phenyl]-N′-methyl-ethane-1,2-diamine] | > 10 |  |  |
